{"source": "patent US20120009271A1", "about": "“METHOD OF DISEASE-INDUCED AND RECEPTOR-MEDIATED STEM CELL NEUROPROTECTION” (MEDICAL COLLEGE OF GEORGIA, priority 2009, published 2012)", "key": {"[1]": {"system": "cultured human amnion stem cells", "assay": "Oxidative stress (H202) in cultured human amnion stem cells, cell survival (Hoechst 33258, trypan blue)", "assay_type": "cell-based", "conditions": "pre-treatment with melatonin 100 μM; H202 100 μM at day 4, survival at day 5; versus non-melatonin treated cells"}, "[2]": {"system": "cultured human amniotic epithelial cells (AECs)", "assay": "Immunocytochemistry of proliferation and differentiation of cultured AECs with or without melatonin", "assay_type": "cell-based", "text": "This is true for both control cells and cells treated with melatonin."}, "[3]": {"conditions": "in vivo; cited from earlier work"}, "[4]": {"system": "OGD-exposed primary rat cells", "assay": "Oxygen glucose deprivation (OGD) injury model, cell viability (Trypan blue and MTT assay)", "conditions": "AECs 5,000 per well or melatonin 100 uM; 20,000 rat cells per well", "procedure": "To reveal the neuroprotective effects of these stem cells, cultured primary rat cells (gestation age 18) were initially exposed to OGD and immediately thereafter stem cells or conditioned media (harvested from OGD-exposed stem cells over 7 days) were added. Parallel sister cultures included non-OGD exposed rat cells (positive control). Stem cell doses were varied at 0 (negative control), 2.5%, 5%, 10% or 25% of total cell population per well. After 3 hours of stem cell or conditioned media treatment, cell viability (Trypan blue and MTT assay) and ELISA were performed.\nCultured primary rat cells (gestation age 18) were initially exposed to the oxygen glucose deprivation (OGD) injury model (92% N2 and 8% O2 gas for 90 minutes), and immediately thereafter AECs, AMCs or conditioned media (harvested from AECs or AMCs cultured over 7 days) were added to the OGD-exposed cells. Parallel sister cultures included non-OGD exposed rat cells (positive control). Placenta cell doses were varied at 0 (negative control), 2.5%, 5%, 10% or 25% of total cell population per well. After 3 hours of placenta cell or conditioned media treatment, cell viability (Trypan blue and MTT assay) and ELISA were performed.\nCultured primary rat cells (gestation age 18; 20,0000 cells per well) were initially exposed to the OGD injury model (92% N2 and 8% 02 gas for 90 minutes). […]"}}, "note": "Entries after “also recorded” stand apart in the source; their conditions may differ."}
{"smiles": "COc1ccc2[nH]cc(CCNC(C)=O)c2c1", "note": "[melatonin, N-acetyl-5-methoxytryptamine]", "values": [{"measurement": "cell survival after oxidative stress", "setting": "[1]", "result": "protected against cell death; also recorded: significantly greater"}, {"measurement": "total TuJ1 positive cells in 5 fields (dendrite +/-)", "setting": "[2]; 100 μM Melatonin versus control, FIG. 14A", "result": "increased the total number of cells expressing Tull"}, {"measurement": "total nestin positive or nestin/MelR1 positive cells in 5 fields", "setting": "[2]; 100 μM Melatonin versus control, FIG. 14B", "result": "increases the total number of nestin positive or nestin/MelR1 positive expressing cells"}, {"measurement": "neural differentiation (TuJ1 and GFAP) of melatonin receptor 1-expressing AECs", "setting": "[2]; melatonin in growth media", "result": "enhanced neural differentiation"}, {"measurement": "proliferation of melatonin receptor 1-expressing AECs", "setting": "[2]; melatonin in growth media", "result": "dose-dependently suppressed proliferation"}, {"measurement": "half life", "setting": "[3]", "result": "30 to 53", "unit": "min"}, {"measurement": "neuroprotection against experimental stroke (OGD), single treatment", "setting": "[4]", "result": "exerted neuroprotection"}]}
